The text below walks through data of patent EP0195147A1, “Trihalo(amine)gold(III) complexes” (ENGELHARD CORPORATION, priority 1985, dated 1986).

Where “and” joins values, the source holds several entries; their conditions need not be identical. Equal entries are not always repeated.

In data set [1] the test system is S 180 ascites. The data set is described as follows: Anti-tumor screening against S 180 ascites (% increase in life span). It is filed as in vivo, female CFW Swiss mice. The following applies: for Survivors: survivors on day of evaluation (twice the mean life span of the control). As to the method: The above prepared compounds were evaluated against §180 ascites in female CFW Swiss mice. The mice were weighed (average weight: 20 g), placed into cages (six mice to a cage) and on day zero the mice were inoculated with 0.2 ml of a freshly prepared saline suspension (0.15 M NaCl) containing 1 x 10^7 tumor cells/ml or a total of 2 x 10^6 cells. This inoculum was freshly prepared using "transfer" mice which had been injected with tumor cells the previous week; it was obtained via the following steps: (1) the removal of cells from the peritoneal cavity of the sacrificed transfer mouse, (2) alternate centrifugation and washing operations (2-3 times with cold saline) to remove blood and other components, and (3) dilution of the volume of the packed cell with saline (1:3). A final centrifugation was carried out at 1000 RPM over a two minute period. A cell count was made on a 2,000-fold dilution of this 1:3 suspension by means of a Coulter Counter. A final dilution to […] cells/ml was made based on the average count.
On day 1, solutions of the test compounds were prepared and each mouse in a set of six were injected with the same test compound at the same dosage. The doses were based on the average weight of the animals (cage weight). Also, beginning on day 1 two controls were employed containing six mice per control; • (1) Normal Control: This consisted solely of the carrier or diluent used in combination with the test compound; and • (2) Positive Control: This consisted solely of the known anti-tumor agent cis-[Pt(NH3)2C12] (Cisplatin) in saline (8 mg/kg) to test the response of the
The effectiveness of a test compound was measured in terms of the % increase in life span (%ILS) of the test mice relative to the Normal Control (Calculated from the day of tumor inoculation, ie., day zero). To standardize the test data and permit intercomparisons, the day of evaluation was arbitrarily taken as that day corresponding to twice the mean life span (or average day of death) of the control. This established a practical upper limit of 100% on the %ILS attainable. For calculation purposes the survivors on the day of evaluation were considered to have died on that day. The %ILS was calculated as follows: [formula] ILS values in excess of 50% were interpreted as being indicative of anti-tumor activity, whereas, values in excess of 75% indicated excellent activity.
The products of Examples 1, 4, 10 and 11 were administered in a freshly prepared 1% sodium bicarbonate solution; the remaining test compounds were administered as slurries in 0.5% "Klucel" (hydroxypropylcellulose). All products (I) are insoluble in water.

Data set [2] concerns implanted Sarcoma 180 tumors. The following applies: value attributed to commercially available Cisplatin; cited from earlier work.
Data set [3] can be described thus: Solubility. It is filed as physicochemical. The following applies: 1% sodium bicarbonate solution; read-out: soluble in 1% sodium bicarbonate solution to the extent of.
The nature of data set [4]: Therapeutic indices, ED90 and LD50 by the method of Miller and Tainter. The following applies: mouse, in vivo; for selectivity ratio: LD50/ED90, read-out: Therapeutic Index; for LD50: lethal dose to 50% of the animals. Also on record: species or system Swiss white mice. As to the method:
The therapeutic indices for the present compounds (I), their effective dose (ED90) and lethal dose (LD50) were determined according to the method of Miller and Tainter (Reported by R. A. Turner, "Screening Methods in Pharmacology", Academic Press, New York, pages 61-62 (1976)).

`N.N.[Cl][Pt][Cl]` [Cisplatin, cis-[Pt(NH3)2C12], reference compound]: in data set [1] (Cisplatin in saline, 8 mg/kg, run alongside the example of the same table line, listed as Positive Control), the “Positive Control Survivors” value is 0 of 6 and 4 of 6 and 1 of 6 and 6 of 6. Moreover, the “Therapeutic Index” value in data set [2] is given as 2.2-2.5.
With `O=C(O)c1ccc[n+]([Au-]([Cl])([Cl])[Cl])c1` [Ex. 1, Trichloro(Nicotinic Acid)Gold(III)], the solubility in data set [3] worked out at 12.8 mg/mL. The Survivors is reported as 0 of 6 in data set [1] (Dose 10 mg/kg); 3 of 6 in data set [1] (Dose 20 mg/kg); 3 of 6 in data set [1] (Dose 40 mg/kg); 4 of 6 in data set [1] (Dose 80 mg/kg); 0 of 6 in data set [1] (Dose 160 mg/kg); 0 of 6 in data set [1] (Dose 320 mg/kg). Besides, the selectivity ratio in data set [4] is 5.8. For the same molecule, the LD50 (usually the dose at which mortality reaches 50%) in data set [4] turned out to be 180 mg/kg.
Turning to `Cn1cc[n+]([Au-]([Cl])([Cl])[Cl])c1` [Ex. 2, Trichloro(N-Methylimidazole)Gold(III)], the Survivors is recorded as 0 of 6 in data set [1] (Dose 5 mg/kg); 0 of 6 in data set [1] (Dose 10 mg/kg); 1 of 6 in data set [1] (Dose 20 mg/kg); 4 of 6 in data set [1] (Dose 40 mg/kg); 1 of 6 in data set [1] (Dose 80 mg/kg); 0 of 6 in data set [1] (Dose 160 mg/kg). For the same molecule, in data set [1] (within the 20-40 mg/kg range), the “anti-tumor activity (in words)” value is “decidedly active”. Further, in data set [4], the selectivity ratio turned out to be 2.8. The same molecule returned an LD50 in data set [4] of 90 mg/kg.
With `CC(=O)c1ccc[n+]([Au-]([Cl])([Cl])[Cl])c1` [Ex. 3, trichloro(3-acetylpyridine)gold(III)], the Survivors in data set [1] (Dose 10 mg/kg) was 0 of 6; in data set [1] (Dose 20 mg/kg), 1 of 6; in data set [1] (Dose 40 mg/kg), 5 of 6; in data set [1] (Dose 80 mg/kg), 4 of 6; in data set [1] (Dose 160 mg/kg) it was 0 of 6; in data set [1] (Dose 320 mg/kg), 0 of 6. Also, the selectivity ratio in data set [4] stood at 4.5. The same molecule yielded an LD50 in data set [4] of 140 mg/kg.
`O=C(O)Cc1ccc[n+]([Au-]([Cl])([Cl])[Cl])c1` [Ex. 4, trichloro-(3-pyridyacetic acid)gold(III)]: the solubility in data set [3] worked out at 12.8 mg/mL. Moreover, the Survivors in data set [1] (Dose 10 mg/kg) is recorded as 0 of 6; in data set [1] (Dose 20 mg/kg), 0 of 6; in data set [1] (Dose 40 mg/kg), 1 of 6; in data set [1] (Dose 80 mg/kg), 1 of 6; in data set [1] (Dose 160 mg/kg), 0 of 6; in data set [1] (Dose 320 mg/kg), 0 of 6. In addition, the selectivity ratio in data set [4] was 1.8. The LD50 in data set [4] worked out at 150 mg/kg.
Regarding `Oc1ccc[n+]([Au-]([Cl])([Cl])[Cl])c1` [Ex. 5], the Survivors in data set [1] (Dose 10 mg/kg) is listed as 0 of 6; in data set [1] (Dose 20 mg/kg), 2 of 6; in data set [1] (Dose 40 mg/kg) it was 3 of 6; in data set [1] (Dose 80 mg/kg), 2 of 6; in data set [1] (Dose 160 mg/kg) it was 0 of 6; in data set [1] (Dose 320 mg/kg), 0 of 6.
Consider `OCc1ccc[n+]([Au-]([Cl])([Cl])[Cl])c1` [Ex. 6], for which the Survivors in data set [1] (Dose 10 mg/kg) is reported as 0 of 6; in data set [1] (Dose 20 mg/kg) it was 1 of 6; in data set [1] (Dose 40 mg/kg), 3 of 6; in data set [1] (Dose 80 mg/kg), 0 of 6; in data set [1] (Dose 160 mg/kg), 0 of 6; in data set [1] (Dose 320 mg/kg) it was 0 of 6. In addition, the selectivity ratio in data set [4] turned out to be 2.1. Moreover, the LD50 in data set [4] came out at 90 mg/kg.
Turning to `[Cl][Au-]([Cl])([Cl])[n+]1ccccc1` [Ex. 7, trichloro(pyridine)gold(III)], the Survivors is given as 3 of 6 in data set [1] (Dose 10 mg/kg); 2 of 6 in data set [1] (Dose 20 mg/kg); 3 of 6 in data set [1] (Dose 40 mg/kg); 2 of 6 in data set [1] (Dose 80 mg/kg); 0 of 6 in data set [1] (Dose 160 mg/kg); 0 of 6 in data set [1] (Dose 320 mg/kg).
As to `[Cl][Au-]([Cl])([Cl])[n+]1cc[nH]c1` [Ex. 8, trichloro(imidazole)gold(III)], the Survivors is 0 of 6 in data set [1] (Dose 5 mg/kg); 0 of 6 in data set [1] (Dose 10 mg/kg); 1 of 6 in data set [1] (Dose 20 mg/kg); 0 of 6 in data set [1] (Dose 40 mg/kg); 1 of 6 in data set [1] (Dose 80 mg/kg); 2 of 6 in data set [1] (Dose 160 mg/kg).
`Cn1cc[n+]([Au-]([Br])([Br])[Br])c1` [Ex. 9, Tribromo(N-Methylimidazole)Gold(III)]: the Survivors is recorded as 0 of 6 in data set [1] (Dose 10 mg/kg); 4 of 6 in data set [1] (Dose 20 mg/kg); 3 of 6 in data set [1] (Dose 40 mg/kg); 1 of 6 in data set [1] (Dose 80 mg/kg); 0 of 6 in data set [1] (Dose 160 mg/kg); 0 of 6 in data set [1] (Dose 320 mg/kg). Also, in data set [4], the selectivity ratio came out at 2. Also, in data set [4], the LD50 worked out at 85 mg/kg.
As to `O=C(O)c1ccc[n+]([Au-]([Br])([Br])[Br])c1` [Ex. 10], the solubility in data set [3] stood at 12.8 mg/mL. In addition, the Survivors is 0 of 6 in data set [1] (Dose 10 mg/kg); 0 of 6 in data set [1] (Dose 20 mg/kg); 2 of 6 in data set [1] (Dose 40 mg/kg); 0 of 6 in data set [1] (Dose 80 mg/kg); 0 of 6 in data set [1] (Dose 160 mg/kg); 0 of 6 in data set [1] (Dose 320 mg/kg).
Take `O=C(O)Cc1ccc[n+]([Au-]([Br])([Br])[Br])c1` [Ex. 11, tribromo(3-pyridylacetic acid)gold(III)]: the solubility in data set [3] turned out to be 12.8 mg/mL. Besides, the Survivors was 0 of 6 in data set [1] (Dose 10 mg/kg); 0 of 6 in data set [1] (Dose 20 mg/kg); 0 of 6 in data set [1] (Dose 40 mg/kg); 1 of 6 in data set [1] (Dose 80 mg/kg); 0 of 6 in data set [1] (Dose 160 mg/kg); 0 of 6 in data set [1] (Dose 320 mg/kg).
For `O=C(O)Cc1ccc[n+]([Au-]([Cl])([Cl])[Cl])c1` [trichloro-(3-pyridyacetic acid)gold(III)], in data set [1] (50% ILS criterion, all doses tested), the “anti-tumor activity (in words)” value is recorded as “pronounced anti-tumor effect”.
